Reference: patent US12077503B2, “Substituted cyclic amides and their use as herbicides” (FMC CORPORATION, priority 2015, dated 2024)

Experiments:
Format in all cases: in vivo
Kochia (Kochia scoparia) = experiment: Test A preemergence; conditions: Bassia scoparia, pre-emergence, 240 h; for pest or weed control at 125 g/ha: 125 g ai/ha, preemergence, 0 to 100 scale where 0 is no effect and 100 is complete control, read-out: Kochia plant response rating; for pest or weed control at 500 g/ha: 500 g ai/ha, Preemergence, visual injury vs untreated controls after approximately 10 d, read-out: Kochia plant response rating (0 to 100 scale where 0 is no effect and 100 is complete control)
In short: (§1)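 Visual injury scores from 0, no effect, to 100, complete control, were assigned versus untreated controls roughly 10 d after treatment in the greenhouse. Test chemicals, formulated with surfactant in a non-phytotoxic solvent, were applied to planted seeds as a preemergence soil spray or postemergence to one- to two-leaf plants 2 to 10 cm tall, in loam–sand soil.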

[1] = test system: barnyardgrass (Echinochloa crus-galli); experiment: Test A preemergence; conditions: Echinochloa crus-galli, pre-emergence, 240 h; for pest or weed control at 125 g/ha: 125 g ai/ha, preemergence, 0 to 100 scale where 0 is no effect and 100 is complete control, read-out: Barnyardgrass plant response rating; for pest or weed control at 500 g/ha: 500 g ai/ha, Preemergence, visual injury vs untreated controls after approximately 10 d, read-out: Barnyardgrass plant response rating (0 to 100 scale where 0 is no effect and 100 is complete control)
In short: as §1

[2] = test system: giant foxtail (Setaria faberii); experiment: Test A preemergence; conditions: Setaria faberi, pre-emergence, 240 h; for pest or weed control at 125 g/ha: 125 g ai/ha, preemergence, 0 to 100 scale where 0 is no effect and 100 is complete control, read-out: Foxtail, Giant plant response rating; for pest or weed control at 500 g/ha: 500 g ai/ha, Preemergence, visual injury vs untreated controls after approximately 10 d, read-out: Foxtail, Giant plant response rating (0 to 100 scale where 0 is no effect and 100 is complete control)
In short: as §1

[3] = test system: pigweed (Amaranthus retroflexus); experiment: Test A preemergence; conditions: Amaranthus retroflexus, pre-emergence, 240 h; for pest or weed control at 125 g/ha: 125 g ai/ha, preemergence, 0 to 100 scale where 0 is no effect and 100 is complete control, read-out: Pigweed plant response rating; for pest or weed control at 500 g/ha: 500 g ai/ha, Preemergence, visual injury vs untreated controls after approximately 10 d, read-out: Pigweed plant response rating (0 to 100 scale where 0 is no effect and 100 is complete control)
[4] = test system: ragweed (common ragweed, Ambrosia elatior); experiment: Test A preemergence; conditions: Ambrosia artemisiifolia, pre-emergence, 240 h; for pest or weed control at 125 g/ha: 125 g ai/ha, preemergence, 0 to 100 scale where 0 is no effect and 100 is complete control, read-out: Ragweed plant response rating; for pest or weed control at 500 g/ha: 500 g ai/ha, Preemergence, visual injury vs untreated controls after approximately 10 d, read-out: Ragweed plant response rating (0 to 100 scale where 0 is no effect and 100 is complete control)
In short: as §1

[5] = test system: ryegrass, Italian (Italian ryegrass, Lolium multiflorum); experiment: Test A preemergence; conditions: Lolium multiflorum, pre-emergence, 240 h; for pest or weed control at 125 g/ha: 125 g ai/ha, preemergence, 0 to 100 scale where 0 is no effect and 100 is complete control, read-out: Ryegrass, Italian plant response rating; for pest or weed control at 500 g/ha: 500 g ai/ha, Preemergence, visual injury vs untreated controls after approximately 10 d, read-out: Ryegrass, Italian plant response rating (0 to 100 scale where 0 is no effect and 100 is complete control)
In short: as §1

[6] = test system: blackgrass (Alopecurus myosuroides); experiment: Test A postemergence; conditions: Alopecurus myosuroides, post-emergence, 240 h, 125 g ai/ha, Postemergence; visual injury after approximately 10 d; 0 to 100 scale where 0 is no effect and 100 is complete control; read-out: Plant response rating, Blackgrass
In short: as §1

[7] = test system: giant foxtail (Setaria faberii); experiment: Test A postemergence; conditions: Setaria faberi, post-emergence, 240 h, 125 g ai/ha, Postemergence; visual injury after approximately 10 d; 0 to 100 scale where 0 is no effect and 100 is complete control; read-out: Plant response rating, Foxtail, Giant
In short: as §1

[8] = test system: pigweed (Amaranthus retroflexus); experiment: Test A postemergence; conditions: Amaranthus retroflexus, post-emergence, 240 h, 125 g ai/ha, Postemergence; visual injury after approximately 10 d; 0 to 100 scale where 0 is no effect and 100 is complete control; read-out: Plant response rating, Pigweed
In short: as §1

[9] = test system: ryegrass, Italian (Italian ryegrass, Lolium multiflorum); experiment: Test A postemergence; conditions: Lolium multiflorum, post-emergence, 240 h, 125 g ai/ha, Postemergence; visual injury after approximately 10 d; 0 to 100 scale where 0 is no effect and 100 is complete control; read-out: Plant response rating, Ryegrass, Italian
In short: as §1

[10] = test system: wheat (Triticum aestivum); experiment: Test A postemergence; conditions: Triticum aestivum, post-emergence, 240 h, 125 g ai/ha, Postemergence; visual injury after approximately 10 d; 0 to 100 scale where 0 is no effect and 100 is complete control; read-out: Plant response rating, Wheat
In short: as §1

[11] = test system: barnyardgrass (Echinochloa crus-galli); experiment: Test B flooded paddy test; conditions: Echinochloa crus-galli, Flood, 250 g ai/ha; scale of 0 to 100 where 0 is no effect and 100 is complete control; read-out: Barnyardgrass plant response rating
In short: (§2)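 Compound goes directly into floodwater once pots are flooded 3 cm above soil, targeting plants at two leaves; the water depth is then held for the test duration. Plants sit 13–15 d in a greenhouse and are rated visually, 100 denoting complete control.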

[12] = test system: ducksalad (Heteranthera limosa); experiment: Test B flooded paddy test; conditions: Heteranthera limosa, Flood, 250 g ai/ha; scale of 0 to 100 where 0 is no effect and 100 is complete control; read-out: Ducksalad plant response rating
In short: as §2

rice (Oryra sativa) = experiment: Test B flooded paddy test; conditions: Oryza sativa, Flood, 250 g ai/ha; scale of 0 to 100 where 0 is no effect and 100 is complete control; read-out: Rice plant response rating
In short: as §2

[13] = test system: sedge, umbrella (small-flower umbrella sedge, Cyperus difformis); experiment: Test B flooded paddy test; conditions: Cyperus difformis, Flood, 250 g ai/ha; scale of 0 to 100 where 0 is no effect and 100 is complete control; read-out: Sedge, Umbrella plant response rating
In short: as §2

Row | SMILES | pest or weed control at 125 g/ha (Kochia (Kochia scoparia)) | pest or weed control at 500 g/ha (Kochia (Kochia scoparia)) | pest or weed control at 125 g/ha [1] | pest or weed control at 500 g/ha [1] | pest or weed control at 125 g/ha [2] | pest or weed control at 500 g/ha [2] | pest or weed control at 125 g/ha [3] | pest or weed control at 500 g/ha [3] | pest or weed control at 125 g/ha [4] | pest or weed control at 500 g/ha [4] | pest or weed control at 125 g/ha [5] | pest or weed control at 500 g/ha [5] | pest or weed control at 125 g/ha [6] | pest or weed control at 125 g/ha [7] | pest or weed control at 125 g/ha [8] | pest or weed control at 125 g/ha [9] | plant injury at 125 g/ha [10] | pest or weed control at 250 g/ha [11] | pest or weed control at 250 g/ha [12] | pest or weed control at 250 g/ha (rice (Oryra sativa)) | further results
1 | CN1CC[C@H](c2cccc(Cl)c2)[C@@H](C(=O)Nc2ccccc2S(C)(=O)=O)C1=O [Compound 923] | 0% | 0% | 0% | 70% | 0% | 70% | 0% | 0% | 0% | 0% | 0% | 0% | 0% | 0% | 0% | 0% | 0% | 0% | 0% | 0% | pest or weed control at 250 g/ha [13]: 0%
2 | CN1CC[C@H](c2cccc(Cl)c2)[C@@H](C(=O)Nc2ccccc2F)C1=O [Compound 922] | 0% | 0% | 60% | 80% | 90% | 90% | 0% | 0% | 0% | 0% | 20% | 40% | 0% | 50% | 0% | 0% | 0% | 0% | 0% | 0% | pest or weed control at 250 g/ha [13]: 0%
